Where two headings read alike, the source gives them in different places.
Legend:
[1] = target: T1, porcine pancreatic elastase (PPE) (Sus scrofa, UniProt P00772); test: Specificity assay, porcine pancreatic elastase; format: biochemical; details: read-out: PPE activity in the specificity assays (IC50)
T1 construct: purchased Sigma, EMDbiosciences
Method: (§1) The specificities of compounds of the present disclosure were determined against a variety of serine proteases: human neutrophil elastase (HNE), porcine pancreatic elastase (PPE) and human pancreatic chymotrypsin and one cysteine protease: human liver cathepsin B. In all cases a 96-well plate format protocol using either colorimetric p-nitroaniline (pNA) substrate or fluorometric Amino-Methyl-Coumarin (AMC) specific for each enzyme was used as described previously (PCT Patent Application No. WO 00/09543) with some modifications to the serine protease assays. All enzymes were purchased from Sigma, EMDbiosciences while the substrates were from Bachem, Sigma and EMDbiosciences.
(§2) The pNA assay for Chymotrypsin included a 1 h enzyme-inhibitor pre-incubation at room temperature followed by addition of substrate and hydrolysis to ˜15% conversion as measured on a Spectramax Pro microplate reader. Compound concentrations varied from 100 to 0.4 μM depending on their potency. Cathepsin B, HNE, and PPE assays each was initiated by addition of substrate to enzyme-inhibitor pre-incubated for 10 min at room temperature and hydrolysis to 15% conversion as measured on cytofluor.
(§3) 50 mM Tris-HCl, pH 8.0, 50 mM NaCl, 0.1 mM EDTA, 3% DMSO, 0.02% Tween-20, 5 μM succ-AAPV-AMC and 20 nM HNE or 8 nM PPE;
(§4) The percentage of inhibition was calculated using the formula: [1−((UVinh−UVblank)/(UVctl−UVblank))]×100 […]

[2] = target: T2, human pancreatic chymotrypsin (Homo sapiens, UniProt P17538); test: Specificity assay, chymotrypsin; format: biochemical; details: read-out: Chymotrypsin activity in the specificity assays (IC50)
T2 construct: purchased Sigma, EMDbiosciences
Method: as §1
as §2, with “cytofluor. […]” for “cytofluor.”
as §4

[3] = tested on: HCV replicon (strain 1b) in HUH-7 cells; test: HCV replicon FRET assay; format: cell-based, Hepatitis C virus; details: Hepatitis C virus
[4] = target: T3, human neutrophil elastase (HNE) (Homo sapiens, UniProt P08246); test: Specificity assay, human neutrophil elastase; format: biochemical; details: read-out: HLE activity in the specificity assays (IC50)
T3 construct: purchased Sigma, EMDbiosciences
T3 sequence (P08246 30-267): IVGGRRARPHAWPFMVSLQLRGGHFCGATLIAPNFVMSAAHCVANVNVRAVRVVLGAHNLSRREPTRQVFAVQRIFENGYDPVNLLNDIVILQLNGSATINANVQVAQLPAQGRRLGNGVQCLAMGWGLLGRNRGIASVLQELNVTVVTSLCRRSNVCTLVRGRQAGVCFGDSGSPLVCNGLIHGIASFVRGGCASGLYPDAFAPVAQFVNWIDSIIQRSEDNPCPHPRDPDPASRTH
Method: as §1, §2, §3, §4

T1 sequence (P00772 27-266): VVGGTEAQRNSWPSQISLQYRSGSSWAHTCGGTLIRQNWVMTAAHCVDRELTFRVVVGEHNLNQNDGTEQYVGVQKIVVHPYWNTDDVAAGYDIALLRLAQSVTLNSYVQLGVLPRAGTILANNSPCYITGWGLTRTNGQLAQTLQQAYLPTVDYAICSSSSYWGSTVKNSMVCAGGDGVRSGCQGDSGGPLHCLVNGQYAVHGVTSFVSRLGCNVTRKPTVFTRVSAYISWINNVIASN
T2 sequence (P17538 19-263): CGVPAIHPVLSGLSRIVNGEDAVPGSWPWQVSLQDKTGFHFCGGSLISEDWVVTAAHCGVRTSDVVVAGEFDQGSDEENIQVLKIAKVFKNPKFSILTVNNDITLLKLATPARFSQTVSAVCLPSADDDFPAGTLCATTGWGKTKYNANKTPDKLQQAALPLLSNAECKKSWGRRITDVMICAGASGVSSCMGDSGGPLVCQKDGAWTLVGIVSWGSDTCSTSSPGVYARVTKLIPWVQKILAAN

## C=C[C@@H]1C[C@]1(NC(=O)[C@@H]1C[C@@H](Oc2nc(N(C)C)cc3cc(OC)ccc23)CN1C(=O)C(Nc1cc(C)cc(C)n1)C(C)(C)C)C(=O)NS(=O)(=O)C1CC1 (single isomer, unassigned) [Compound 18]
[1]
  IC50: > 1560 nM
[2]
  IC50: > 50 µM
[3]; Huh-7, read-out: EC50 in the replicon FRET assay, replicon FRET assay
  EC50: 9 nM
[3]; Huh-7, read-out: HCV Pro Replicon (EC50), HCV replicon cell assay, activity range class
  EC50: 3 to 100 nM
[4]
  IC50: > 1560 nM

From patent publication US7772180B2, “Hepatitis C virus inhibitors” (Bristol-Myers Squibb Company, priority 2006, dated 2010)
